Literature values, collected in US5550124A, “Use of peripheral-type benzodiazpine sites for treatment of CNS trauma or disease” (priority 1991, dated 1996).
Entries after “also recorded” stand apart in the source; their conditions may differ. Like-named read-outs stand apart in the source and are kept apart here.

Columns and labels:
[1] = in vivo; cited from earlier work
[2] = dogs; cited from earlier work
NMDA receptor [3] = settings: cats; cited from earlier work
NMDA receptor [4] = settings: in vivo; cited from earlier work
NMDA receptor [5] = settings: rats; cited from earlier work
[6] = rats; cited from earlier work
[7] = in vivo; cited from earlier work; remark: listed apart in the source
[8] = in vivo; cited from earlier work; remark: listed apart in the source
[9] = in vivo; cited from earlier work; remark: listed apart in the source
[10] = administered post-ischemia in animals; cited from earlier work
platelet aggregation = settings: cited from earlier work
[11] = ischemic baboons; cited from earlier work

In the case of `CN1C(=O)CN=C(c2ccccc2)c2cc(Cl)ccc21` [Diazepam, 7-Chloro-1,3-dihydro-1-methyl-5-phenyl-2H-1,4-benzodiazepin-2-one], the “effect in cerebral ischemia” value [1] is given as “somewhat effective in treatment of cerebral ischemia”.
For `Fc1ccc(C(c2ccc(F)cc2)N2CCN(C/C=C/c3ccccc3)CC2)cc1` [Flunarizine], the “effect on cerebral blood flow” value [2] is listed as “no increase in cerebral blood flow or improvement in cerebral metabolism”.
In the case of `C[C@]12N[C@H](Cc3ccccc31)c1ccccc12` [MK-801], the “effect on blood pressure” value (NMDA receptor [3]) is listed as “increases blood pressure”, the adverse reactions (NMDA receptor [4]) is listed as “respiratory depression and elevated CO2 level; also recorded: behavioral changes, including a psychotic-like response and diminished cognitive and mental status” and the “effect on blood pressure” value (NMDA receptor [5]) is listed as “increases blood pressure”.
In the case of `COC(=O)C1=C(C)NC(C)=C(C(=O)OC)C1c1ccccc1[N+](=O)[O-]` [Nifedipine], the “effect on cerebral blood flow” value [6] is given as “antagonize cerebral blood flow”.
For `CCCCC[C@H](O)/C=C/[C@@H]1[C@H]2C/C(=C/CCCC(=O)O)O[C@H]2C[C@H]1O` [PGI2, prostaglandin I2], the half life [7] is listed as 3 min and the adverse effects [8] is listed as “tendency to precipitate hypotension”.
For `CC(=O)CCCCn1c(=O)c2c(ncn2C)n(C)c1=O` [Pentoxifylline], the “effect on blood viscosity / red blood cell flexibility” value [9] is given as “improves the oxygenation of ischemic tissues by decreasing blood viscosity” and the adverse effects [8] is given as “chest pain, dyspepsia, nausea, vomiting, dizziness, headache, tremor, anxiety, blurred vision, malaise, and others”.
For `CN(C)CCCSc1ccccc1NC(=O)/C=C/c1ccccc1` [cinanserin], the “effect on neurologic function” value [10] is given as “help preserve neurologic function”.
In the case of `CN1CCC(=C2c3ccccc3C=Cc3ccccc32)CC1` [cyproheptadine], the “effect on neurologic function” value [10] is given as “help preserve neurologic function”.
For `COc1ccc2c(c1)c(CC(=O)O)c(C)n2C(=O)c1ccc(Cl)cc1` [indomethacin], the “effect on platelet aggregation” value (platelet aggregation) is given as “inhibit platelet aggregation” and the “edema, cerebral blood flow and carbon dioxide reactivity” value [11] is given as “significantly increase edema and decrease cerebral blood flow and carbon dioxide reactivity”.
